Entries after “also recorded” stand apart in the source; their conditions may differ.
Columns and labels:
[1] = Preliminary safety study, 4 weeks IP treatment in control and STZ-treated mice; format: in vivo, mouse
Protocol: FIG. 10. […] A preliminary safety profile of PHAR treatment was assessed in […] control and streptozotocin (STZ) treated mice. These mice were subjected to a daily IP dose of […] of vehicle (VEH; Tween-80:PBS, 1:13), or PHAR for 5 days a week for 4 weeks. A) weight evolution during the weeks of treatment. (B-E) serum analysis of the levels of albumin (B), total protein (C) and liver transaminases, aspartate transaminase, AST (D), and alanine transaminase, ALT (E). The ranges of normal values are highlighted with a green dashed line. The number of individuals per group is reflected in the graphs.
Preliminary safety studies have been performed in 7-week-old control and streptozotocin (STZ)-treated mice. These mice were subjected to an I.P treatment of 50 mg/kg of vehicle (Tween-80: PBS, 1:13) or PHAR for 4 weeks with 5 weekly doses. […] On the other hand, serum levels of albumin, total protein and two transaminases (AST and ALT) were analyzed.

[2] = system: peritoneal macrophages (Nrf2+/+); assay: Inflammatory response in LPS-stimulated peritoneal macrophages from Nrf2+/+ mice; format: cell-based, mouse; conditions: PHAR 10 μM 8 h, LPS 100 ng/ml 4 h
Protocol: FIG. 8. PHAR reduces inflammatory response in peritoneal macrophages originating from Nrf2^+/+ mice but not in peritoneal macrophages originating from LPS-stimulated Nrf2-4KI mice. Peritoneal macrophages originating from wild-type (WT) and serum-deprived NRF2 knock-in (Nrf2-4Ki) mice were pretreated with 10 μM of PHAR for 8 h. 0.1% DMSO was used as a vehicle. After that period of time, the cells were treated with 100 ng/ml of LPS for 4 h. A), representative immunoblots originating from both cell types of NRF2, HO1, pre-IL1β, COX2, NOS2, and GAPDH as a loading control. B), densitometric analysis of NRF2 and HO1 protein levels of the representative immunoblots of (A), expressed as a ratio of protein/GAPDH levels. The data is depicted as means±SEM (n=3). Statistical analysis was performed with two-way ANOVA followed by the Bonferroni test to compare inter-group differences. *p<0.05; **p<0.01; ***p<0.001 vs. LPS. C), Densitometric analysis of pre-IL1b, COX2, and NOS2 protein levels of the representative immunoblots of (A), expressed as a ratio of protein/GAPDH levels. The data is depicted as means±SEM (n=3). […] D), the mRNA levels of Hmox1, Il1 β, Cox2, Nos2, Il6, and Tnfα were determined by means of qRT-PCR and normalized by means of average Gapdh, Thp, and β-actin. […]

STAM mice (NAFLD) = assay: STAM fatty liver model, treatment from steatosis stage (week 6); format: in vivo, mouse
Protocol: FIG. 12. PHAR decreases the inflammatory response in mice subjected to fatty liver in the STAM model. The STAM model is based on the induction of non-alcoholic fatty liver (NAFLD) generated by the subcutaneous injection of streptozotocin (STZ) in neonatal C57BL/6J mice (2-5 days old) followed by a high-fat diet administered from 4 weeks of age. In this case, we treated mice in the steatosis stage (week 6), 5 days a week with an IP administration of 50 mg/kg in order to analyze if PHAR prevents progression to the next stage (NASH). A), H&E staining of liver from PHAR-treated and untreated STAM mice. Histochemical lipid staining with oil red was used to visualize the amount of liver fat. B), normalized quantification of the amount of liver fat per mouse, measured by MRI, on the last day of treatment. C), representative MRI profiles of one mouse liver of each group. The peak that appears at an approximate frequency of 4.7 ppm corresponds to the water molecule (the majority), while the rest of the peaks give information on the amount of liver fat. The ratio of the sum of the fat peaks to water indicates the total liver fat content. D), mRNA levels of several genes involved in fatty acid metabolism (Cpt1a, Scd1, Cd36 and Fasn). E), the mRNA levels of the pro-inflammatory (Tnf, Il6 and Infg) and anti-inflammatory (Il10 and Il4) cytokines were determined by qRT-PCR and were normalized by the average of Gapdh, Tbp and β-actin. Statistical analysis was performed using a Student's t test to compare the differences between PHAR-treated mice vs vehicle-treated mice. *p<0.05; **p<0.01.
As previously described, the STAM model is a murine model used for the study of non-alcoholic fatty liver disease (NAFLD), as well as for the search of new effective treatments. This model is generated by the subcutaneous injection of streptozotocin (STZ) in 2-5 day old neonatal C57BL/6J mice followed by a high-fat diet, administered after 4 weeks of age. STZ produces a pancreatic lesion that leads to the appearance of hyperglycemia that, together with the high-fat diet, gradually leads to different stages of progressive liver damage: steatosis (week 6 post-STZ injection); Inflammatory NASH (week 8); NASH fibrosis (week 10) and, finally, hepatocarcinoma (week 16). The pathogenesis of NAFLD is closely related to the appearance of reactive oxygen species, chronic low-grade inflammation, and changes in lipid metabolism. For this reason, we determined whether PHAR, as an inducer of NRF2, could attenuate the inflammatory response. Specifically, we treated mice in the steatosis stage (week 6), 5 days a week with an IP administration of 50 mg/kg in order to analyze if it prevents progression to the next stage (NASH). […] Altogether, we conclude that PHAR slows down the accumulation of fat and, therefore, prevents the appearance of NASH.

[3] = STAM mice from week 6, IP 50 mg/kg 5 days a week

## O=C1[C@@H]2[C@H](Cc3c[nH]c4ccccc34)N[C@]3(C(=O)Nc4ccc(Cl)cc43)[C@@H]2C(=O)N1c1ccc2c(c1)OCCO2 [PHAR]
[1]; control and STZ-treated mice, I.P 50 mg/kg, 5 weekly doses, 4 weeks
  body weight during treatment: did not lose weight
[1]; control and STZ-treated mice, I.P 50 mg/kg, 5 weekly doses, after 4 weeks
  serum albumin, total protein, AST and ALT: values within normal ranges
[1]; mice, daily IP 5 days a week for 4 weeks
  toxicity of chronic / prolonged administration: does not produce toxicity; also recorded: prolonged administration of PHAR is safe
[2]
  NRF2 and HO-1 protein levels: significant increase in NRF2 and HO-1 protein levels
  production of inflammatory markers, protein (pre-IL1β, COX2, NOS2) and mRNA (Il1β, Cox2, Nos2, Il6, Tnfα): significantly lower
STAM mice (NAFLD); [3]
  accumulated liver fat (oil red): significantly decreased the amount of accumulated liver fat
  liver fat quantity by MRI at the end of treatment: slows the accumulation of liver fat
STAM mice (NAFLD); STAM mice from week 6, liver
  expression of anti-inflammatory cytokines Il10 and Il4: to increase the anti-inflammatory cytokines
  expression of pro-inflammatory cytokines Tnf, Il6, Infg: tendency to decrease
  fatty acid synthesis, Fasn expression (mRNA): decreasing of Fasn
  lipid catabolism, expression of Cpt1a (mRNA): increase in lipid catabolism

Source: US12590100B2, “Tetrahydro-spiroindoline-pyrrolopyrrole-triones inhibitors of the NRF2-β-TrCP interaction for use in the treatment of fatty liver disease” (Universidad Autonoma De Madrid, priority 2021, dated 2026)
